Results: ChEMBL document CHEMBL6121070, “Covalent-Allosteric Inhibitors: Do We Get the Best of Both Worlds?” (J Med Chem, 2025)
Each block holds one molecule with its values, some of them ahead of it.

What was measured:
[1] = target: T1, Tyrosine-protein phosphatase non-receptor type 11 (Homo sapiens, UniProt Q06124); assay: Binding affinity to SHP2 (unknown origin) assessed as inhibition constant
T1 sequence (Q06124 whole entry): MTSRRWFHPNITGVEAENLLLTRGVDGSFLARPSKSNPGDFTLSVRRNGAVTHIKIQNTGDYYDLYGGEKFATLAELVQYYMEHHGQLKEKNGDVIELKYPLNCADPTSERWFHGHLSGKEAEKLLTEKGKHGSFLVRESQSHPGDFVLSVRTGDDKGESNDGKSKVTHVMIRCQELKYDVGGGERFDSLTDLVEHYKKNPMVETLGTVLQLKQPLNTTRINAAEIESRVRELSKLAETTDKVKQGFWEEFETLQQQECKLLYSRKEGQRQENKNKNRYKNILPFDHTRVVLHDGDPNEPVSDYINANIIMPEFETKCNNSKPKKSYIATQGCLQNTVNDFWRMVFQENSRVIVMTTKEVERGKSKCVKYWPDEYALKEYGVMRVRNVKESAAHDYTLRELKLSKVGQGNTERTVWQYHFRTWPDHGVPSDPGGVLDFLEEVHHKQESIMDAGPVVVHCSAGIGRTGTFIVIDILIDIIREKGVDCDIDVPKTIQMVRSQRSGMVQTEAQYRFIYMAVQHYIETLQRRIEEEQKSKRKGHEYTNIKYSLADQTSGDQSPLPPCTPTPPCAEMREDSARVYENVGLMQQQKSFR

[2] = target: T2, Tyrosine-protein phosphatase non-receptor type 1 (Homo sapiens, UniProt P18031); assay: Inhibition of 6xHis-tagged human PTP1B catalytic domain using pNPP as substrate by […] based assay
T2 sequence (P18031 whole entry): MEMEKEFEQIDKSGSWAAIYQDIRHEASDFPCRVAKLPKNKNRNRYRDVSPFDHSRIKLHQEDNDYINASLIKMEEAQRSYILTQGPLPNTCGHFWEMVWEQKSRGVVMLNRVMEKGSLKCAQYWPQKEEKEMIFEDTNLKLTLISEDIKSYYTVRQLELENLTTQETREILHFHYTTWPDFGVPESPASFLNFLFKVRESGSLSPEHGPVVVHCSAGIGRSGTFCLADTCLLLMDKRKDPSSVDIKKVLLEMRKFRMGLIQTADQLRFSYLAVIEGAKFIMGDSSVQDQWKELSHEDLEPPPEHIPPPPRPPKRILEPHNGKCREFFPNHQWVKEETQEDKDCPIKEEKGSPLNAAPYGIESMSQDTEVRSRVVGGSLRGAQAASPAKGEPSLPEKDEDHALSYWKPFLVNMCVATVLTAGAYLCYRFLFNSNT

[3] = Covalent allosteric inhibition of full length AKT (unknown origin); parameters: species or system Homo sapiens
[4] = Non-competitive allosteric inhibition of PTP1B (unknown origin) transformed in Escherichia coli BL21; parameters: species or system Homo sapiens

Ki [1]: 279 µM
IC50 [2]: 35 µM
Compound: C=CC(=O)Nc1ccnc2ccccc12

Ki [3]: 0.0069 µM
Compound: C=CC(=O)Nc1cccc(C(=O)NC2CCN(Cc3ccc(-c4nc5cc[nH]c(=O)c5cc4-c4ccccc4)cc3)CC2)c1

Compound: CN(C)CCSSCC(=O)Nc1cc(-c2ccc(F)cc2F)ccc1O
Ki [4]: 7.1 µM
